Source: ChEMBL document CHEMBL1136687, “Novel 5-aryl-1,3-dihydro-indole-2-thiones. potent, orally active progesterone receptor agonists” (Bioorg Med Chem Lett, 2003)
pEC50, pIC50: −log10 of the molar value.

Columns and labels:
Progesterone receptor [1] = molecular target: T1, Progesterone receptor (Homo sapiens, UniProt P06401); experiment: (§1) Effective concentration of progesterone receptor agonist induction of alkaline phosphatase activity in human T47D breast carcinoma cells; type: functional, cell-based
T1 sequence (P06401 whole entry): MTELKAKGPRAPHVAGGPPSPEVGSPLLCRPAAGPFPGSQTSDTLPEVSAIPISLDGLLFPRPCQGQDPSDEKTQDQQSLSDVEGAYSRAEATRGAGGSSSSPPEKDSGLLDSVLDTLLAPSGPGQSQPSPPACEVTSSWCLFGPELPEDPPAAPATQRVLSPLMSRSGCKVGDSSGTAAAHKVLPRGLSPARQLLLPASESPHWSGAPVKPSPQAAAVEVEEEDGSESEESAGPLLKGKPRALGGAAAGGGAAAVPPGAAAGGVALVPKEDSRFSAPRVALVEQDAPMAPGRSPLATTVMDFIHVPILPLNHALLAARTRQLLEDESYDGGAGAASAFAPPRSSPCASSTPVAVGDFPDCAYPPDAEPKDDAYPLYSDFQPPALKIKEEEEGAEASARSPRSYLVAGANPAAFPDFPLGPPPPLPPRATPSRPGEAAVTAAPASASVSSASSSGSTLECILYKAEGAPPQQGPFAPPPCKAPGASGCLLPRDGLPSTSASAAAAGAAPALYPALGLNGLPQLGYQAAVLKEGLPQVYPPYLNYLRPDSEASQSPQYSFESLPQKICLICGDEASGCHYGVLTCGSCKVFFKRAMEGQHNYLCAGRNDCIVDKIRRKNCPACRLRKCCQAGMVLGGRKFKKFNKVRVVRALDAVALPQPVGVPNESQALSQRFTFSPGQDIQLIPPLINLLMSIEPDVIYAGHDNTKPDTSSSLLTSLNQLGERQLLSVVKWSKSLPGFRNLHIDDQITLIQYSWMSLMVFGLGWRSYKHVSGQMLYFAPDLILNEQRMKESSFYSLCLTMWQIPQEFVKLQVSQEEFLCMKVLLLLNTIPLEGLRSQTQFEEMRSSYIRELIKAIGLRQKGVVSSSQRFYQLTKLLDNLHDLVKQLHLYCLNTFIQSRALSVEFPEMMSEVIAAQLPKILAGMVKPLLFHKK

Progesterone receptor [2] = molecular target: T1, Progesterone receptor; experiment: as §1; type: functional, cell-based; remark: listed apart in the source
[3] = molecular target: T2, Progesterone receptor (Rattus norvegicus) (UniProt Q63449); experiment: Effective progestational dose on oral administration in rat decidualization model; type: functional, organism-based
T2 sequence (whole entry): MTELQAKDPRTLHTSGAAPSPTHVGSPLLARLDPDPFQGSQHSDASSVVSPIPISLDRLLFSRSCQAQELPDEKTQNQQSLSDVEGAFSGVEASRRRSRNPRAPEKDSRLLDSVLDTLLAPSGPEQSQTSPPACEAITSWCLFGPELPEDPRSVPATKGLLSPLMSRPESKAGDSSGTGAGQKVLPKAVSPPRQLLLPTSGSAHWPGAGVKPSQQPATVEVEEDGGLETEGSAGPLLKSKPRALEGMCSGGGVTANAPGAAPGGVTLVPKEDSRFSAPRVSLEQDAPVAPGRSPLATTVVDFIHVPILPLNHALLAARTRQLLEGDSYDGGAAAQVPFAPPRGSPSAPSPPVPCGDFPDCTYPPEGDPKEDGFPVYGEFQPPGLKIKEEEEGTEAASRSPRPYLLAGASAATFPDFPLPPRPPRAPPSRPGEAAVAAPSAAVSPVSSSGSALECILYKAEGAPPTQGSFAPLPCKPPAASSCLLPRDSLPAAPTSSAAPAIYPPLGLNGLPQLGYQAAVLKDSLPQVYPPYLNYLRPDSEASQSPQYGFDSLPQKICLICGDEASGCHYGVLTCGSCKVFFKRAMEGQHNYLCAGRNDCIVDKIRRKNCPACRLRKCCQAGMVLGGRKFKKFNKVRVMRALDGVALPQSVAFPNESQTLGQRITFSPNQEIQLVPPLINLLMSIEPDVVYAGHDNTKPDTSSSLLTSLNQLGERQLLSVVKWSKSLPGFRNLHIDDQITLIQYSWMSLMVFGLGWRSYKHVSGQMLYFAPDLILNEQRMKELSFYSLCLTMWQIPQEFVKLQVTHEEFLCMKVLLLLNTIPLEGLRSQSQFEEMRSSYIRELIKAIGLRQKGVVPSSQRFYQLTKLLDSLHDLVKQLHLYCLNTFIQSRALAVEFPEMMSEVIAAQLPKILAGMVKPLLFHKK

Progesterone receptor [4] = molecular target: T3, Progesterone receptor (Rattus norvegicus, UniProt Q63449); experiment: Inhibitory progestational activity on oral administration in uterine C3 model; type: functional, organism-based
T3 sequence (Q63449 whole entry): T2 sequence (whole entry)

Androgen receptor [5] = molecular target: T4, Androgen receptor (Mus musculus, UniProt P19091); experiment: Effective concentration against Androgen receptor in mouse fibroblast L929 cells
T4 sequence (P19091 whole entry): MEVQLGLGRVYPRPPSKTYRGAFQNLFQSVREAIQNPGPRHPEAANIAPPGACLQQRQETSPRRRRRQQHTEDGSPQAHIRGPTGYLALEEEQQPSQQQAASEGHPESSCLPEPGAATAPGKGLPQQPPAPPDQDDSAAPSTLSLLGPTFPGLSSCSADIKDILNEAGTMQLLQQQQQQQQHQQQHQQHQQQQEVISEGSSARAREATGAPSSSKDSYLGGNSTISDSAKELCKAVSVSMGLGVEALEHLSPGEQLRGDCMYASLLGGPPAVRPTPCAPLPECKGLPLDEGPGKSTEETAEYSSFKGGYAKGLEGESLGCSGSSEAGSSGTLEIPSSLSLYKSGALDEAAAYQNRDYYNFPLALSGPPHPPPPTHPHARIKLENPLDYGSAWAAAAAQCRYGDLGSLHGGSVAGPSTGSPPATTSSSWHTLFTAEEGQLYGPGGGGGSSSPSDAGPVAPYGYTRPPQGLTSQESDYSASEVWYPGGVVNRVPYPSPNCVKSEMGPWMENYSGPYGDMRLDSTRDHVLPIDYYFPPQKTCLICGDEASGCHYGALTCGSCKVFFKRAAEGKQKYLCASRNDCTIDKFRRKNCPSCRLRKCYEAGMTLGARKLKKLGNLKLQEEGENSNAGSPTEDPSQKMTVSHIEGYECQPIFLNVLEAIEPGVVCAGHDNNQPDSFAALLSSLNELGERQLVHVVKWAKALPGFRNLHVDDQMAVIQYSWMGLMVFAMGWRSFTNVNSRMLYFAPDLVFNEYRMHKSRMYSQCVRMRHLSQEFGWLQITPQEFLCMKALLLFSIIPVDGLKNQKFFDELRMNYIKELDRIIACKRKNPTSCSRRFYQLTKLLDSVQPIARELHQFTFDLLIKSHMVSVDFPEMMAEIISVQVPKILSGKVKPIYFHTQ

Androgen receptor [6] = molecular target: T4, Androgen receptor; experiment: Inhibitory activity against Androgen receptor in mouse fibroblast L929 cells; type: cell-based
Glucocorticoid receptor [7] = molecular target: T5, Glucocorticoid receptor (Homo sapiens, UniProt P04150); experiment: Effective concentration against glucocorticoid receptor in human lung A549 cells
T5 sequence (P04150 whole entry): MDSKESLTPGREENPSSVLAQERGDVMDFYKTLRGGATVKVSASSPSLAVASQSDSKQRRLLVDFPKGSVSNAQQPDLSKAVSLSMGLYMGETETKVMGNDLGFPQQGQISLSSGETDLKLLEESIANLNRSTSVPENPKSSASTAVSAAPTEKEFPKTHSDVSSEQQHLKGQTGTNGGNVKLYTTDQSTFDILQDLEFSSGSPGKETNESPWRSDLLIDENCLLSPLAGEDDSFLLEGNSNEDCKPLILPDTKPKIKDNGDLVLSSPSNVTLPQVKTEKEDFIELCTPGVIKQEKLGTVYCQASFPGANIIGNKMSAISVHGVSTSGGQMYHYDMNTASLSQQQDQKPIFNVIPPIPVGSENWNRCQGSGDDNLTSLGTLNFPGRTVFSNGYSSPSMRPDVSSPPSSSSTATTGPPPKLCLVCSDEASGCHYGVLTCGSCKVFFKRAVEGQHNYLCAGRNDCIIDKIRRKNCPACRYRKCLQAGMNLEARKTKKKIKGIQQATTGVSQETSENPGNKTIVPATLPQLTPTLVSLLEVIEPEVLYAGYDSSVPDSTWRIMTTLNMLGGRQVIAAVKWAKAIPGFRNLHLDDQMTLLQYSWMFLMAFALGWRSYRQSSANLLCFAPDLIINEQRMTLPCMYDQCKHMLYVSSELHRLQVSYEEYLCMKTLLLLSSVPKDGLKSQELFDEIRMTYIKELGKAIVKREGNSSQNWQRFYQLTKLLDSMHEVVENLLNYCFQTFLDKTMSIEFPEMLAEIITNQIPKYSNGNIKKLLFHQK

Glucocorticoid receptor [8] = molecular target: T5, Glucocorticoid receptor; experiment: Inhibitory activity against glucocorticoid receptor in human lung A549 cells
Progesterone receptor [9] = molecular target: T1, Progesterone receptor; experiment: Inhibition of 3 nM [3H]R5020 binding to progesterone receptor in human T47D cells; type: functional, cell-based

SMILES	pEC50 (Progesterone receptor [1])	further results
Oc1cccc(-c2ccc3c(c2)C2(CCCCC2)C(S)=N3)c1	8.60	–
CC1(Cc2ccccc2)C(=S)Nc2ccc(-c3cccc(Cl)c3)cc21 (stereo not drawn)	5.92	–
CN1C(=S)C2(CCCCC2)c2cc(-c3cccc(Cl)c3)ccc21	< 5.52	pEC50 (Progesterone receptor [2]): < 5.52
COc1cc(F)cc(-c2ccc3c(c2)C2(CCCCC2)C(=S)N3)c1	8.59	–
Fc1ccc(-c2ccc3c(c2)C2(CCCCC2)C(S)=N3)cc1F	8.27	–
CCCc1cc(C#N)sc1-c1ccc2c(c1)C1(CCCCC1)C(S)=N2	8.11	–
Fc1cccc(-c2ccc3c(c2)C2(CCCCC2)C(S)=N3)c1	8.80	–
Cc1cc(C#N)sc1-c1ccc2c(c1)C1(CCCCC1)C(S)=N2	–	ED50 [3]: 1 mg/kg
CC(=O)O[C@]1(C(C)=O)CC[C@H]2[C@@H]3C[C@H](C)C4=CC(=O)CC[C@]4(C)[C@H]3CC[C@@]21C [MEDROXYPROGESTERONE ACETATE]	–	IC50 (Progesterone receptor [4]): 0.026 mg/kg
SC1=Nc2ccc(-c3cccc(-c4ccccc4)c3)cc2C12CCCCC2	7.15	–
N#Cc1ccc(-c2ccc3c(c2)C2(CCCCC2)C(S)=N3)cc1F	7.83	–
S=C1Nc2ccc(-c3ccc(Cl)s3)cc2C12CCCCC2	8.85	–
SC1=Nc2ccc(-c3cccc(Cl)c3)cc2C12CCCCC2	–	ED50 [3]: > 3 mg/kg; IC50 (Progesterone receptor [4]): 0.37 mg/kg
N#Cc1ccc(F)c(-c2ccc3c(c2)C2(CCCCC2)C(=S)N3)c1	8.85	–
Cc1c(S)[nH]c2ccc(-c3cccc(Cl)c3)cc12	< 5.52	–
N#Cc1cc(-c2ccc3c(c2)C2(CCCCC2)C(=S)N3)cs1	9.52	–
S=C1Nc2ccc(-c3cccc(Cl)c3)cc2C12CCCCC2	8.80	–
N#Cc1cccc(-c2ccc3c(c2)C2(CCCCC2)C(=S)N3)c1	8.70	ED50 [3]: 0.4 mg/kg; IC50 (Progesterone receptor [4]): 0.3 mg/kg

SMILES	pEC50 (Progesterone receptor [1])	further results
CC1(C)C(=S)Nc2ccc(-c3cccc(Cl)c3)cc21	8.30	–
Fc1ccc(-c2ccc3c(c2)C2(CCCCC2)C(S)=N3)cc1Cl	8.37	–
N#Cc1ccc(-c2ccc3c(c2)C2(CCCCC2)C(=S)N3)s1	9.00	–
N#Cc1cc(-c2ccc3c(c2)C2(CCCCC2)C(=S)N3)co1	8.72	–
N#Cc1ccc(-c2ccc3c(c2)C2(CCCCC2)C(S)=N3)o1	8.72	ED50 [3]: 1 mg/kg
CCC1(CC)C(=S)Nc2ccc(-c3cccc(Cl)c3)cc21	6.70	–
S=C1Nc2ccc(-c3ccccc3Cl)cc2C12CCCCC2	8.28	–
N#Cc1ccc(-c2ccc3c(c2)C2(CCCCC2)C(S)=N3)s1	–	ED50 [3]: 0.1 mg/kg; IC50 (Progesterone receptor [4]): 0.03 mg/kg
S=C1Nc2ccc(-c3ccc(Cl)cc3)cc2C12CCCCC2	5.70	–
S=C1Nc2ccc(-c3cccc(Cl)c3)cc2C12CCC2	7.54	–
Fc1cc(F)cc(-c2ccc3c(c2)C2(CCCCC2)C(=S)N3)c1	9.10	–
Fc1cc(Cl)cc(-c2ccc3c(c2)C2(CCCCC2)C(=S)N3)c1	9.30	–
S=C1Nc2ccc(-c3cccc(Cl)c3)cc2C12CCCC2	8.01	–
N#Cc1cc(-c2ccc3c(c2)C2(CCCCC2)C(=S)N3)ccc1F	8.38	–
Cc1cc(C#N)sc1-c1ccc2c(c1)C1(CCCCC1)C(=S)N2	9.30	–
N#Cc1cc(F)cc(-c2ccc3c(c2)C2(CCCCC2)C(S)=N3)c1	9.44	pEC50 (Androgen receptor [5]): < 5.00; pIC50 (Androgen receptor [6]): < 5.00; pEC50 (Glucocorticoid receptor [7]): < 5.00; pIC50 (Glucocorticoid receptor [8]): 7.46; pIC50 (Progesterone receptor [9]): 7.80; ED50 [3]: 0.1 mg/kg; IC50 (Progesterone receptor [4]): 0.025 mg/kg
CCCCc1cc(C#N)sc1-c1ccc2c(c1)C1(CCCCC1)C(S)=N2	7.63	–
